Laboratory results from ChEMBL document CHEMBL1134858, “Identification of a novel 1'-[5-((3,5-dichlorobenzoyl)methylamino)-3-(3,4-dichlorophenyl)-4-(methoxyimino)pentyl]-2-oxo-(1,4'-bipiperidine) as a dual NK(1)/NK(2) antagonist” (Bioorg Med Chem Lett, 2002).
Values joined by “and” are separate entries in the source; they are usually repeats but may differ in a detail not shown here. Equal values may be shown once.

Key:
[1] = target: T1, Substance-P receptor (Cavia porcellus, UniProt P30547); assay: In vitro binding to Tachykinin receptor 1
[2] = target: T2, Substance-K receptor (Cavia porcellus, UniProt Q64077); assay: In vitro functional NK2 activity as inhibition of guinea pig bronchoconstriction; assay type: tissue-based, Lung; settings: read-out: pA2 (converted)
T2 sequence (Q64077 whole entry): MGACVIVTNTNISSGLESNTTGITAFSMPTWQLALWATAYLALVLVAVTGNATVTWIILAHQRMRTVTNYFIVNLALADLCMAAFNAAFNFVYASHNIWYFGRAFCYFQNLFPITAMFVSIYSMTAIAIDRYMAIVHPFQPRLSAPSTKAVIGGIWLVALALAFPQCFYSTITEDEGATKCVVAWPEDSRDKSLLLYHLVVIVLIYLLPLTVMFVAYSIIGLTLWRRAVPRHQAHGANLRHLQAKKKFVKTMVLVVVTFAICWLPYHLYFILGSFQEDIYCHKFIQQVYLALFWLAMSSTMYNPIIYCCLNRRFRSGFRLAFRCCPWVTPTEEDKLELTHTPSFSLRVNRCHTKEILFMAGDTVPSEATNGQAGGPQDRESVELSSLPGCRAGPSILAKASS

[3] = target: T2, Substance-K receptor; assay: In vitro binding to Tachykinin receptor 2
[4] = target: T1, Substance-P receptor; assay: In vitro functional NK1 activity as inhibition of guinea pig bronchoconstriction; assay type: tissue-based, Lung; settings: read-out: pA2 (converted)
[5] = test system: Cavia porcellus; assay: In vivo NK1 activity in the guinea pig is characterized by the compounds ability to inhibit the increase in airway microvascular leakage (AML) produced by a SP challenge at 10 mg/kg; assay type: functional
[6] = test system: Cavia porcellus; assay: In vivo NK2 activity is characterized by the compounds ability to inhibit bronchoconstriction produced by a NKA challenge at 10 mg/kg; assay type: functional; settings: Lung
[7] = target: T2, Substance-K receptor; assay: […] is characterized by the compound ability to inhibit guinea pig bronchoconstriction; assay type: functional, Lung; settings: read-out: pA2 (converted)
[8] = AUC in dog at 0-24 hr by peroral administration at 3 mpk; assay type: ADME, organism-based, Canis lupus familiaris; design: dose 3 mpk, time < 24 hr, route oral; settings: plasma, po, 3 mg/kg
[9] = Bioavailability in dog; assay type: ADME, organism-based, Canis lupus familiaris; settings: in vivo
[10] = test system: Cavia porcellus; assay: In vivo NK1 activity in the guinea pig is characterized by the compounds ability to inhibit the increase in airway microvascular leakage (AML) produced by a SP challenge; assay type: functional
[11] = test system: Cavia porcellus; assay: In vivo NK2 activity is characterized by the compounds ability to inhibit bronchoconstriction produced by a NKA challenge; assay type: functional; settings: Lung
[12] = test system: Cavia porcellus; assay: In vivo NK2 activity is characterized by the compounds ability to inhibit bronchoconstriction produced by a NKA challenge at 10 mpk; assay type: functional; settings: Lung

T1 sequence (P30547 whole entry): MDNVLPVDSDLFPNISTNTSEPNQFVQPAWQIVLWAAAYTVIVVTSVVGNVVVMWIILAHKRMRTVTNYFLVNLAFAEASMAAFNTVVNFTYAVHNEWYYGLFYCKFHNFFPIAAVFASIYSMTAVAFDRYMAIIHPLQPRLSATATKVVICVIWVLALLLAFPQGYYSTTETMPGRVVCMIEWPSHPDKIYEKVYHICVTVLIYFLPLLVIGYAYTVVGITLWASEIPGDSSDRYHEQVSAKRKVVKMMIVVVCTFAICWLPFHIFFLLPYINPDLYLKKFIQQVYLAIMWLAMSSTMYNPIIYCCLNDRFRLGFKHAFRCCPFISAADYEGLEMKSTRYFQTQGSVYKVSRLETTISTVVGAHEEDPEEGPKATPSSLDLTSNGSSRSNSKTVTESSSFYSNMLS

| Structure (SMILES) | Ki [1] | Kb [2] | Ki [3] | Kb [4] | Kb [7] | AUC at 24 h [8] | bioavailability [9] | inhibition in vivo at 10 mg/kg [5] | inhibition in vivo at 10 mg/kg [6] | ED50 [10] | ED50 [11] | inhibition in vivo at 10 mg/kg [12] |
| --- | --- | --- | --- | --- | --- | --- | --- | --- | --- | --- | --- | --- |
| CO/N=C(\CN(C)C(=O)c1cc(Cl)cc(Cl)c1)C(CCN1CCC(N2CCCC(CC(=O)N(C)C)C2=O)CC1)c1ccc(Cl)c(Cl)c1 (stereo not given) | 1 nM | 63.1 nM | 1 nM | – | – | – | – | – | – | – | – | – |
| CO/N=C(\CN(C)C(=O)c1cc(Cl)cc(Cl)c1)[C@H](CCN1CCC(N2CCCC(CC(=O)N3CCOCC3)C2=O)CC1)c1ccc(Cl)c(Cl)c1 (stereo not given in full) | 0.7 nM | 12.6 nM | 0.4 nM | 15.8 nM | – | – | – | 47% | 97% | – | – | – |
| CO/N=C(\CN(C)C(=O)c1cc(Cl)cc(Cl)c1)C(CCN1CCC(N2CCCC(CC(N)=O)C2=O)CC1)c1ccc(Cl)c(Cl)c1 (stereo not given) | 2 nM | 100 nM | 3 nM | – | – | – | – | – | – | – | – | – |
| CNC(=O)CC1CCCN(C2CCN(CCC(/C(CN(C)C(=O)c3cc(Cl)cc(Cl)c3)=N/OC)c3ccc(Cl)c(Cl)c3)CC2)C1=O (stereo not given) | 2 nM | 50.1 nM | 2 nM | – | – | – | – | – | – | – | – | – |
| CO/N=C(\CN(C)C(=O)c1cc(Cl)cc(Cl)c1)[C@@H](CCN1CCC(N2CCCC(CC(N)=O)C2=O)CC1)c1ccc(Cl)c(Cl)c1 (stereo not given in full) | 0.4 nM | 50.1 nM | 0.3 nM | 20 nM | – | – | – | – | – | – | – | – |
| CO/N=C(\CN(C)C(=O)c1cc(Cl)cc(Cl)c1)[C@@H](CCN1CCC(N2CCCC(CC(=O)N(C)C)C2=O)CC1)c1ccc(Cl)c(Cl)c1 (stereo not given in full) | 0.8 nM | 39.8 nM | 0.3 nM | 10 nM | – | – | – | – | – | – | – | – |
| CO/N=C(\CN(C)C(=O)c1cc(Cl)cc(Cl)c1)[C@H](CCN1CCC(N2CCCC(CC(N)=O)C2=O)CC1)c1ccc(Cl)c(Cl)c1 (stereo not given in full) | 0.8 nM | 10 nM | 0.3 nM | 10 nM | – | 9490 ng·h/mL | 37% | – | – | 1 mg/kg | 4 mg/kg | – |
| CO/N=C(\CN(C)C(=O)c1cc(Cl)cc(Cl)c1)[C@H](CCN1CCC(N2CCCC(CC(=O)N(C)C)C2=O)CC1)c1ccc(Cl)c(Cl)c1 (stereo not given in full) | 0.8 nM | 39.8 nM | 0.2 nM | 12.6 nM | – | 3460 ng·h/mL | – | – | – | 3 mg/kg | 3 mg/kg | – |
| CO/N=C(\CN(C)C(=O)c1cc(Cl)cc(Cl)c1)[C@@H](CCN1CCC(N2CCCC(CC(=O)N3CCOCC3)C2=O)CC1)c1ccc(Cl)c(Cl)c1 (stereo not given in full) | 0.8 nM | 126 nM | 0.8 nM | 6.31 nM | – | – | – | – | – | – | – | – |
| CO/N=C(\CN(C)C(=O)c1cc(Cl)cc(Cl)c1)C(CCN1CCC(N2CCCCC2=O)CC1)c1ccc(Cl)c(Cl)c1 (stereo not given) | 5 nM | 50.1 nM | 2 nM | – | – | – | – | – | – | – | – | – |
| CO/N=C(\CN(C)C(=O)c1cc(Cl)cc(Cl)c1)C(CCN1CCC(N2CCCC(CC(=O)N3CC(O)C3)C2=O)CC1)c1ccc(Cl)c(Cl)c1 (stereo not given) | 3 nM | 25.1 nM | 2 nM | – | – | – | – | – | – | – | – | – |

The next lines start with results.

| Ki [1] | Kb [2] | Ki [3] | Kb [4] | Kb [7] | AUC at 24 h [8] | bioavailability [9] | Structure (SMILES) | inhibition in vivo at 10 mg/kg [5] | inhibition in vivo at 10 mg/kg [6] | ED50 [10] | ED50 [11] | inhibition in vivo at 10 mg/kg [12] |
| --- | --- | --- | --- | --- | --- | --- | --- | --- | --- | --- | --- | --- |
| 1.5 nM | 39.8 nM | 0.9 nM | 10 nM | – | – | – | CNC(=O)CC1CCCN(C2CCN(CC[C@H](/C(CN(C)C(=O)c3cc(Cl)cc(Cl)c3)=N/OC)c3ccc(Cl)c(Cl)c3)CC2)C1=O (stereo not given in full) | – | – | – | – | – |
| 1.1 nM | – | 0.6 nM | – | 501 nM | – | – | CO/N=C(\CN(C)C(=O)c1cc(Cl)cc(Cl)c1)[C@@H](CCN1CCC(N2CCCC(CC(=O)N3CC(O)C3)C2=O)CC1)c1ccc(Cl)c(Cl)c1 (stereo not given in full) | – | – | – | – | – |
| 1.2 nM and 1 nM | 20 nM | 0.8 nM and 1 nM | 10 nM | – | 1220 ng·h/mL | 5% | CO/N=C(\CN(C)C(=O)c1cc(Cl)cc(Cl)c1)[C@H](CCN1CCC(N2CCCCC2=O)CC1)c1ccc(Cl)c(Cl)c1 | – | – | 1 mg/kg | 3 mg/kg | – |
| 1.3 nM | 15.8 nM | 0.4 nM | 12.6 nM | – | 13600 ng·h/mL | 66% | CNC(=O)CC1CCCN(C2CCN(CC[C@@H](/C(CN(C)C(=O)c3cc(Cl)cc(Cl)c3)=N/OC)c3ccc(Cl)c(Cl)c3)CC2)C1=O (stereo not given in full) | – | – | 1 mg/kg | 3 mg/kg | – |
| 1 nM | 50.1 nM | 1 nM | – | – | – | – | CO/N=C(\CN(C)C(=O)c1cc(Cl)cc(Cl)c1)C(CCN1CCC(N2CCCC(CC(=O)N3CCOCC3)C2=O)CC1)c1ccc(Cl)c(Cl)c1 (stereo not given) | – | – | – | – | – |
| 0.6 nM | 50.1 nM | 0.3 nM | 10 nM | – | – | – | CO/N=C(\CN(C)C(=O)c1cc(Cl)cc(Cl)c1)[C@H](CCN1CCC(N2CCCC(CC(=O)N3CC(O)C3)C2=O)CC1)c1ccc(Cl)c(Cl)c1 (stereo not given in full) | 45% | – | – | – | 64% |
